Measured values reported in patent US20050130881A1, “Single amino acid based compounds for counteracting effects of reactive oxygen species and free radicals” (priority 2001, published 2005).

Experiments:
CAT [1] = assay: In vivo upregulation of CAT in rat brain (Western immunoblot); design: species or system Sprague-Dawley rats; conditions: for Fold Upregulation of CAT: relative to vehicle
Procedure: (§1) In vivo experiments were carried out in Sprague-Dawley rats (300-325 g) with solutions of L-aspartic acid. The animals were injected intravenously (iv) via the tail vein with L-aspartic acid. Each animal received one injection of L-aspartic acid in normal saline at total dose equivalent of 0.00, 0.75, 1.50, 3.00, and 6.00 mg L-aspartic acid/kg body weight or orally by gavage at a dose equivalent of 0.00 or 60.0 mg/kg body weight. The animals were sacrificed by decapitation at 6 hours post injection and dissected to isolate the brain organs, which were frozen at −70° C. for subsequent analysis by Western immunoblots.
(§2) Each brain tissue was thawed and homogenized in a Down's homogenizer using ten volumes of homogenizer buffer (see, Adams et al., […], 77: 221-233 (2000); buffer as described in Adams et al., J. Leukoc. Biol., 62: 865-875 ([…])) to obtain a crude cytoplasmic fraction. The brain tissue homogenates were centrifuged (14,000×g for 5 minutes at 4° C.) to yield the supernatant purified cytoplasmic protein fractions for Western immunoblot analysis as described in Adams et al. (J. Cell. Biochem., 77: 221-233 (2000)). A 10 μg sample of each protein fraction was then separated by SDS polyacrylamide gel electrophoresis (SDS-PAGE) and analyzed for SOD and CAT content by Western blot assay as above.
(§3) Control for measurement of unstimulated levels of SOD were obtained from vehicle-only (i.e., no L aspartic acid), injected or gavaged rats that were sacrificed at 6 hours post injection. […] Standard quantities of each cytoplasmic fraction (10 μg) were loaded on a lane of a gel for electrophoretic separation and Western immunoblot analysis (Adams et al., J. Cell. Biochem., 77: 221-233 (2000)). The stained gels were photographed and scanned by laser densitometry to quantify intensities in comparison to enzyme levels for control vehicle treated rats.
(§4) The data are expressed as a fold increase relative to control animals that received vehicle only. Intravenous (i.v.) injections were administered as 0.3 ml in normal saline during five minutes. Oral doses were administered as a solution in 1 ml saline by gavage.

CAT [2] = assay: Upregulation of CAT in primary rat cortical cultures (Western immunoblot, laser densitometry); assay type: cell-based; conditions: for Upregulation (fold increase) CAT: 5 hours, relative to untreated control cultures
Procedure: [The source words this procedure for another target and reports this target under the same test.] (§5) Primary rat cortical cultures were obtained by growing newborn rat brain cortical cells in Delbecco's modified Eagle medium supplemented with 100 units/ml of penicillin G, 100 μg/ml of streptomycin, and 10% fetal calf serum. The cells were isolated from the E-21 cortex of rat brain, plated at a density of 1×10^5 per ml and grown to confluence within four to five days in an atmosphere containing air and 5% CO2 at 37° C. as described in Cornell-Bell et al., Science, 247: 470-473 (1990) and Cell Calcium, 12: 185-204 (1991). Cultures were grown in 20 ml flasks as a monolayer and then exposed to various concentrations of L-aspartic acid for studies of the effect on upregulation of the gene for SOD. Cultures of the rat brain cortical cells were incubated with 0.00, 0.01, 0.13, 1.30, and 13.30 μg/ml L-aspartic acid for durations of 5 hours. Control cultures were treated in the same manner, but were not incubated with L-aspartic acid.
(§6) Cytoplasmic proteins were isolated according to published methods (Adams et al., J. Leukoc. Biol., 62: 865-873 (1997)). The cell cultures were washed once in phosphate buffer saline (PBS) containing 20 mM EDTA and then suspended in 250 μl of freshly prepared lysis buffer (20 mM Hepes, pH 7.9, 10 mM KCl, 300 mM NaCl, 1 mM MgCl2, 0.1% Triton X-100 nonionic detergent, 20% glycerol, 0.5 mM dithiothreitol (DTT), freshly supplemented with inhibitors as described in Adams et al., […]., 77: 221-233 (2000)). The suspensions were then incubated for at least 10 minutes on ice to lyse cells and then centrifuged (14,000×g for 5 minutes at 4° C.) to pellet cell debris. The supernatant cytoplasmic fractions were removed and stored as aliquots at −80° C. for analysis.
(§7) The cytoplasmic proteins were separated by SDS-PAGE using 5 μg/lane on the gels for analysis by Western immunoblots. […] SOD expression was detected in the Western blots using anti-SOD rabbit polyclonal antibody (Rockland, Inc., Gilbertville, Pa.). The Western blots were also analyzed by laser densitometry to quantify SOD protein upregulation. The control in these experiments was an identical culture flask, which was treated only with vehicle (i.e., buffer, no L-aspartic acid).

[3] = test system: primary rat cortical cultures; assay: Tissue culture properties of primary rat cortical cultures; assay type: cell-based; conditions: low doses of up to 10 ng/ml in culture
Sprague-Dawley rats = assay: In vivo observations of toxicity and behaviour after dosing; conditions: 60 mg/Kg oral, rat
Procedure: as §1
At 6 mg/Kg, upregulation of CAT became higher than SOD. The compound is also active orally, but in that case, a dose of 60 mg/Kg must be used in the rat to see an effect.

SOD [4] = assay: In vivo upregulation of SOD in rat brain (Western immunoblot); design: species or system Sprague-Dawley rats; conditions: for Fold Upregulation of SOD: relative to vehicle
Procedure: as §1, §2, §3, §4

SOD [5] = assay: Upregulation of SOD in primary rat cortical cultures (Western immunoblot, laser densitometry); assay type: cell-based; conditions: for Upregulation (fold increase) SOD: 5 hours, relative to untreated control cultures
Procedure: as §5, §6, §7

[6] = 0.75 mg/kg i.v., rat brain, 6 hours post injection
[7] = 1.50 mg/kg i.v., rat brain, 6 hours post injection
[8] = 3.00 mg/kg i.v., rat brain, 6 hours post injection
[9] = 6.00 mg/kg i.v., rat brain, 6 hours post injection
[10] = 60.00 mg/kg oral (gavage), rat brain, 6 hours

Structure (SMILES): N[C@@H](CC(=O)O)C(=O)O [Aspartic Acid, L-aspartic acid]
- Fold Upregulation of CAT (CAT [1]; [6]): 1.0 fold
- Fold Upregulation of CAT (CAT [1]; [7]): 1.0 fold
- Fold Upregulation of CAT (CAT [1]; [8]): 1.2 fold
- Fold Upregulation of CAT (CAT [1]; [9]): 2.5 fold
- Fold Upregulation of CAT (CAT [1]; [10]): 3.5 fold
- i.v. dose that must be injected before upregulation of CAT is observed (CAT [1]; i.v., rat brain): 3 mg/kg
- oral dose that must be used to see an effect (CAT upregulation) (CAT [1]; oral, rat): 60 mg/kg
- Upregulation (fold increase) CAT (CAT [2]; 0.01 μg/ml): 1.0 fold increase
- Upregulation (fold increase) CAT (CAT [2]; 0.13 μg/ml): 1.0 fold increase
- CAT upregulation (CAT [2]; 1.3 μg/ml): upregulated
- Upregulation (fold increase) CAT (CAT [2]; 1.30 μg/ml): 2.3 fold increase
- Upregulation (fold increase) CAT (CAT [2]; 13.30 μg/ml): 3.7 fold increase
- effect on any aspects of tissue culture properties [3]: no effect
- toxic effect (Sprague-Dawley rats): no toxic effect
- Fold Upregulation of SOD (SOD [4]; [6]): 1.0 fold
- Fold Upregulation of SOD (SOD [4]; [7]): 1.0 fold
- Fold Upregulation of SOD (SOD [4]; [8]): 1.3 fold
- Fold Upregulation of SOD (SOD [4]; [9]): 1.3 fold
- Fold Upregulation of SOD (SOD [4]; [10]): 2.9 fold
- i.v. dose that must be injected before upregulation of SOD is observed (SOD [4]; i.v., rat brain): 3 mg/kg
- oral dose that must be used to see an effect (SOD upregulation) (SOD [4]; oral, rat): 60 mg/kg
- Upregulation (fold increase) SOD (SOD [5]; 0.01 μg/ml): 1.0 fold increase
- SOD upregulation (SOD [5]; 130 ng/ml): upregulation of SOD
- Upregulation (fold increase) SOD (SOD [5]; 0.13 μg/ml): 1.6 fold increase
- SOD upregulation (SOD [5]; 1.3 μg/ml): upregulated
- Upregulation (fold increase) SOD (SOD [5]; 1.30 μg/ml): 2.1 fold increase
- SOD increase by Western blot (SOD [5]; 13.3 μg/ml): substantial increase
- Upregulation (fold increase) SOD (SOD [5]; 13.30 μg/ml): 3.5 fold increase
- effect on SOD upregulation (SOD [5]; low doses of up to 10 ng/ml in culture): no effect
